Patent US10399931B2, “Octahydroanthracene compound, preparation method and application thereof” (SHANDONG XINHUA PHARMACEUTICAL CO., LTD., priority 2016, dated 2019)

Assays:
[1] = system: APP/PS1 double transgenic AD model mice; assay: Pathology of hippocampal CA1 neurons in APP/PS1 mice; assay type: in vivo
[2] = system: APP/PS1 mice; assay: Patch clamp experiment, LTP (synaptic function); assay type: in vivo
[3] = system: APP/PS1 transgenic mice; assay: Morris water maze test (oriented navigation and probe test); assay type: in vivo; settings: for Number of times traversing the safe platform vs model group / Percentage of the swimming distance in the target quadrant vs model group / Swimming time in the target quadrant vs model group: probe test
Method: The drugs were administered three days after the adaptive feeding. Peanut oil was used as the solvent. The drug was intragastric administered once a day for 15 days. On the 6th to 9th day after the administration, the new object identification test was performed. On the 10th day, the Y-maze test was performed. On the 11th to 15th day, the Morris water maze test was performed to determine the improvement of learning and memory. The administration of the drugs was continued during the behavioral experiment until the animals were sacrificed (16th day).
The experimental device includes a black circular pool with a diameter of 100 cm and a height of 40 cm, and a white platform (safe platform) having a diameter of about 10 cm. The location of the safe platform could be moved. Morris Water Maze Video Detection and Analysis System was provided by the Institute of Materia Medica, China Academy of Medical Sciences. One day before the experiment, water was injected into the black circular pool (water temperature 22±1° C.), and white pigment was added to mix uniformly. The water surface was usually about 1 cm higher than the top of the safe platform. The pool was divided into four quadrants I, II, III and IV, and the safe platform was usually placed in the middle of the quadrant IV. The experiment was divided into two parts: (1) Oriented navigation: the animal grouping was input into a computer software in advance. The position of the safe platform was kept unchanged during the experiment. During the test, the experimental animal facing the pool wall was placed in the water from different inlets, and the computer simultaneously collected data and recorded the time to find the safe platform (escape latency). Data collection automatically stopped when the animal stayed on the safe platform for 10 s. The data acquisition time of the mouse was 60 s. If the animal could not find the safe platform within the specified time, the escape latency was recorded as 60 s. At the same time, the operator induced the animal to reach the safe platform and stay for 10 s. The animal was trained twice a day for 4 consecutive days. (2) Probe test: after the oriented navigation test is completed, the safe platform is removed and the animal was placed in the pool free to explore for 60 s. The camera system automatically recorded the time and distance of the experimental animal swimming in the quadrant of the safe platform within the specified time and the number of times passing through the location of the safe platform.

[4] = system: APP/PS1 transgenic mice; assay: Nesting experiment; assay type: in vivo
Text: Each mouse was separately housed in a cage. On the first day of the test, two pieces of cotton (5 cm×5 cm) were placed in the cage. […]

[5] = system: Human cutaneous T-cell lymphoma Hut102 cells; assay: MTT assay, proliferation of human cutaneous T-cell lymphoma Hut102 cells; assay type: cell-based; settings: HuT-102, 10 μM, Mean ± SE, read-out: Inhibitive rate (%) against Hut102 cells
Method: The survival rate of cells was determined by MTT assay, which is based on the metabolic reduction of 3-(4,5-dimethyl-2thiahiazoyl)-3,5-di-phenyl-tetrazolium bromide (MTT) by viable cells. MTT is a yellow compound, a dye that accepts hydrogen ion, which can act on the respiratory chain in the mitochondria of viable cells. Under the action of succinate dehydrogenase and cytochrome C, the tetrazolium ring was cleaved to form blue Formazan crystals, and the amount of Formazan crystals generated was only proportional to the number of the viable cells. The enzymes disappeared in dead cells, so Formazan crystals could not be dissolved in MTT solution containing 20% sodium dodecyl sulfate (pH 4.7).
The cells in the logarithmic growth phase were selected and adjusted to an appropriate cell density, seeded in a 96-well plate, 100 μl/well, and cultured in a 37° C., 5% CO2 incubator. The cells were allowed to adhere overnight, then the culture medium was replaced and the drug was added to cultivate for 48 h. A blank control group, a drug administration group and a positive control group were set, with four repeats in each group.
After 48 h of drug treatment, the cells were incubated with 0.25 mg/ml MTT at 37° C. for 3-4 h, and 100 μl of dimethyl sulfoxide (DMSO) was added to each well after aspirating the culture solution.

CC1(C)CCC(C)(C)c2c1cc1c(c2NC(=O)c2ccc(NC(=O)NCCN)cc2)C(C)(C)CCC1(C)C [OAB-14, 1-(2-amino) ethyl-3-{4-[(1,1,4,4,5,5,8,8-octamethyl-1,2,3,4,5,6,7,8-octahydro-9-anthryl)carbamoyl]phenyl} urea]
Morphology of hippocampal CA1 neurons ([1]; 100 mg/kg group): closely arranged, no visible edema and nuclear pyknosis
Morphology of hippocampal CA1 neurons ([1]; 200 mg/kg group): closely arranged, no visible edema and nuclear pyknosis
LTP ([2]; 100 mg/kg group): significantly enhanced
LTP ([2]; 200 mg/kg group): significantly enhanced
Total swimming distance vs model group ([3]; 100 mg/kg, fourth day of training): significantly reduced
Escape latency vs model group ([3]; 100 mg/kg, third and fourth days of training): significantly reduced
Escape latency vs model group ([3]; 200 mg/kg, from the second day of training): significant decrease
Total swimming distance vs model group ([3]; 200 mg/kg, from the third day of training): significant decrease
Number of times traversing the safe platform vs model group ([3]; 100 mg/kg): significantly increased
Percentage of the swimming distance in the target quadrant vs model group ([3]; 100 mg/kg): significantly increased
Swimming time in the target quadrant vs model group ([3]; 100 mg/kg): significantly increased
Number of times traversing the safe platform vs model group ([3]; 200 mg/kg): significantly increased
Percentage of the swimming distance in the target quadrant vs model group ([3]; 200 mg/kg): significantly increased
Swimming time in the target quadrant vs model group ([3]; 200 mg/kg): significantly increased
Spatial learning and memory disorders of the APP/PS1 mice ([3]; water maze oriented navigation, overall): significantly improved
Nesting ability vs model group ([4]; 100 mg/kg, at 12 h): significantly increased
Nesting ability vs model group ([4]; 200 mg/kg, at 6 h): significantly increased
Nesting ability vs model group ([4]; 200 mg/kg, at 12 h): significantly increased
Nesting ability vs model group ([4]; 200 mg/kg, at 24 h): significantly increased
inhibition at 10 µM [5]: 41.2 ± 1.08%
